Experimental data published in patent US20050164370A1 (priority 2003, published 2005).
Read-outs that look alike come from different tables or passages of the source.

Columns and labels:
Assay type in all cases: cell-based, yeast
[1] = tested on: transformed cells TM182-CYC1-ADHIPT4; conditions: DOHLU+Glu, 30° C. for 24 hours
Method: (§1) Each of the transformed cells TM182-CYC1-CYC1IPT4, TM182-CYC1-ADHIPT4, TM182-CYC1-CYC1IPT5, TM182-CYC1-ADHIPT5, TM182-CRE1-CYC1IPT4, and TM182-CRE1-ADHIPT5 obtained in Example 16 was inoculated in 200 mL of DOHLU+Gal culture medium, and was pre-cultured at 30° C. for 36 hours. The thus obtained culture solutions were diluted with DOHLU+Glu culture medium so that OD600 became 0.200, and then the diluted ones were further diluted with DOHLU+Glu culture medium at a dilution rate of 1/200 to obtain diluted pre-cultured solutions.
(§2) A 96-well assay plate was prepared by filling each well with 1 μL of a DMSO solution of an examinee substance (Abscisic acid or 6-Benzyl aminopurine). In this regard, it is to be noted that the DMSO solution of a examinee substance was prepared so that the concentration thereof became 200 ppm. Simultaneously, an assay plate was prepared by filling each well with 1 μL of DMSO as a blank section.
(§3) Each of the diluted pre-cultured solutions was added in a volume of 100 μL per each well of both of the assay plates, and was cultured at 30° C. for 24 hours. After incubation, the turbidity of each well was measured using a plate reader.
(§4) Each of the transformed cells TM182-CYC1-CYC1IPT4, TM182-CYC1-ADHIPT4, TM182-CYC1-CYC1IPT5, TM182-CYC1-ADHIPT5, TM182-CRE1-ADHIPT4, TM182-AHK2-CYC1IPT4, TM182-AHK2-CYC1IPT5 and TM182-AHK2-ADHIPT5 obtained in Example 16 was inoculated in 200 mL of DOHLU+Gal culture medium, and was pre-cultured at 30° C. for 36 hours. The thus obtained culture solutions were diluted with DOHLU+Glu culture medium so that OD600 became 0.200, and then the diluted ones were further diluted with DOHLU+Glu culture medium at a dilution rate of 1/200 to obtain diluted pre-cultured solutions.
as §3

[2] = tested on: transformed cells TM182-CYC1-CYC1IPT4; conditions: DOHLU+Glu, 30° C. for 24 hours
Method: as §1, §2, §3, §4, §3

[3] = tested on: transformed cells TM182-CYC1-CYC1IPT5; test: Liquid culture of transformed cell TM182-CYC1-CYC1IPT5 with examinee substance, absorbance; conditions: DOHLU+Glu, 30° C. for 24 hours
Method: (§5) The thus obtained culture solutions were diluted with DOHLU+Glu culture medium so that OD600 became 0.200, and then the diluted ones were further diluted with DOHLU+Glu culture medium at a dilution rate of 1/200 to obtain diluted pre-cultured solutions.
as §2
(§6) Each of the diluted pre-cultured solutions was added in a volume of 100 μL per each well of both of the assay plates, and was cultured at 30° C. for 24 hours. After incubation, the turbidity of each well was measured using a plate reader. The absorbance (OD600) of each of the culture solutions of the transformed cells containing the examinee substance was shown in Table 3. […] Further, the growth speeds of the transformed cells TM182-CRE1-CYC1IPT4 and TM182-CRE1-ADHIPT5 in the culture medium to which 6-Benzyl aminopurine was added were faster than those in the culture medium to which only DMSO was added.
as §6, with “4.” for “3.”, “TM182-CRE1-ADHIPT4, TM182-AHK2-CYC1IPT4, TM182-AHK2-CYC1IPT5” for “TM182-CRE1-CYC1IPT4”, “TM182-AHK2-ADHIPT5” for “TM182-CRE1-ADHIPT5”

[4] = tested on: transformed cells TM182-CYC1-ADHIPT5; test: Liquid culture of transformed cell TM182-CYC1-ADHIPT5 with examinee substance, absorbance; conditions: DOHLU+Glu, 30° C. for 24 hours
Method: as §5, §2, §6
as §6, with “4.” for “3.”, “TM182-CRE1-ADHIPT4, TM182-AHK2-CYC1IPT4, TM182-AHK2-CYC1IPT5” for “TM182-CRE1-CYC1IPT4”, “TM182-AHK2-ADHIPT5” for “TM182-CRE1-ADHIPT5”

[5] = tested on: transformed cells TM182-AHK2-CYC1IPT4; test: Liquid culture of transformed cell TM182-AHK2-CYC1IPT4 with examinee substance, absorbance; conditions: Table 4, TM182-AHK2-CYC1-IPT4, 1 μL of 200 ppm DMSO solution per 100 μL, DOHLU+Glu, 30° C. for 24 hours
Method: as §5, §2
as §6, with “4.” for “3.”, “TM182-CRE1-ADHIPT4, TM182-AHK2-CYC1IPT4, TM182-AHK2-CYC1IPT5” for “TM182-CRE1-CYC1IPT4”, “TM182-AHK2-ADHIPT5” for “TM182-CRE1-ADHIPT5”

[6] = Table 3, TM182-CYC1-ADH-IPT4, 1 μL of 200 ppm DMSO solution per 100 μL
[7] = Table 4, TM182-CYC1-ADH-IPT4, 1 μL of 200 ppm DMSO solution per 100 μL
[8] = Table 3, TM182-CYC1-CYC1-IPT4, 1 μL of 200 ppm DMSO solution per 100 μL
[9] = Table 4, TM182-CYC1-CYC1-IPT4, 1 μL of 200 ppm DMSO solution per 100 μL
[10] = Table 3, TM182-CYC1-CYC1-IPT5, 1 μL of 200 ppm DMSO solution per 100 μL
[11] = Table 4, TM182-CYC1-CYC1-IPT5, 1 μL of 200 ppm DMSO solution per 100 μL
[12] = Table 3, TM182-CYC1-ADH-IPT5, 1 μL of 200 ppm DMSO solution per 100 μL
[13] = Table 4, TM182-CYC1-ADH-IPT5, 1 μL of 200 ppm DMSO solution per 100 μL

## CC1=CC(=O)CC(C)(C)[C@@]1(O)/C=C/C(C)=C\C(=O)O [Compound A, Abscisic acid]
[1]; [6]
  absorbance (OD600) of the culture solution: 0.040
[1]; [7]
  absorbance (OD600) of the culture solution: 0.035
[2]; [8]
  absorbance (OD600) of the culture solution: 0.042
[2]; [9]
  absorbance (OD600) of the culture solution: 0.035
[3]; [10]
  absorbance (OD600) of the culture solution: 0.041
[3]; [11]
  absorbance (OD600) of the culture solution: 0.036
[4]; [12]
  absorbance (OD600) of the culture solution: 0.043
[4]; [13]
  absorbance (OD600) of the culture solution: 0.035
[5]
  absorbance (OD600) of the culture solution: 0.194

## c1ccc(CNc2ncnc3nc[nH]c23)cc1 [Compound B, 6-Benzyl aminopurine]
[1]; [6]
  absorbance (OD600) of the culture solution: 0.041
[1]; [7]
  absorbance (OD600) of the culture solution: 0.034
[2]; [8]
  absorbance (OD600) of the culture solution: 0.042
[2]; [9]
  absorbance (OD600) of the culture solution: 0.034
[3]; [10]
  absorbance (OD600) of the culture solution: 0.043
[3]; [11]
  absorbance (OD600) of the culture solution: 0.035
[4]; [12]
  absorbance (OD600) of the culture solution: 0.043
[4]; [13]
  absorbance (OD600) of the culture solution: 0.035
[5]
  absorbance (OD600) of the culture solution: 0.339
